Measurements: ChEMBL document CHEMBL4400559, “Exploiting the furo[2,3-b]pyridine core against multidrug-resistant Mycobacterium tuberculosis” (Bioorg Med Chem Lett, 2019)
Converted amounts (≈) assume the structure as drawn.

Assays:
[1] = system: Mycobacterium tuberculosis; assay: Antibacterial activity against Mycobacterium tuberculosis H37Rv ATCC 27294 after 7 days by resazurin microtiter assay; format: functional; details: H37Rv ATCC 27294, 168 h
MRC5 = assay: Cytotoxicity against human MRC5 cells after 24 hrs by resazurin dye-based fluorescence assay; format: cell-based; details: MRC5, 24 h
J774.A1 = assay: Cytotoxicity against mouse J774A.1 cells after 24 hrs by resazurin dye-based fluorescence assay; format: cell-based; details: J774.A1, 24 h
[2] = Selectivity index, ratio of IC50 for human MRC5 cells to MIC90 for Mycobacterium tuberculosis H37Rv ATCC 27294; format: toxicity; details: read-out: Selectivity Index
[3] = Selectivity index, ratio of IC50 for mouse J774A.1 cells to MIC90 for Mycobacterium tuberculosis H37Rv ATCC 27294; format: toxicity; details: read-out: Selectivity Index

SMILES | MIC90 [1] [µM] | IC50 (MRC5) [µM] | IC50 (J774.A1) [µM] | selectivity ratio [2] | selectivity ratio [3]
CCOC(=O)c1c(C)oc2nc(N3CCN(c4ccccc4)CC3)ccc12 | > 68.5 |  |  |  | 
CCOC(=O)c1c(C(C)C)oc2nc(N3CCOCC3)ccc12 | > 78.5 |  |  |  | 
CCOC(=O)c1c(C)oc2nc(N3CC[C@@H](F)C3)ccc12 | > 85.6 | > 342 |  |  | 
CC(C)c1oc2nc(N3CCCC3)ccc2c1C(=O)O | > 91.1 |  |  |  | 
CCOC(=O)c1c(C(C)C)oc2nc(N3CCN(c4ccc(Cl)cc4)CC3)ccc12 | > 58.5 |  |  |  | 
CNC(=O)c1c(-c2ccc(O)cc2)oc2ccc(O)c(CN3CCCCC3)c12 | 0.09 (≈ 0.0342 µg/mL) |  |  |  | 
CCOC(=O)c1c(-c2ccccc2)oc2nc(N3CCCC3)ccc12 | > 74.4 | > 298 |  |  | 
CCOC(=O)c1c(C(C)C)oc2nccc(N3CCOCC3)c12 | > 78.5 |  | 215 |  | 
CCOC(=O)c1c(-c2ccccc2)oc2ncc(N3CCCC3)cc12 | > 74.4 | > 298 |  |  | 
CCOC(=O)c1c(C(C)C)oc2nc(N3CCN(c4ccccc4)CC3)ccc12 | > 63.6 |  |  |  | 
CNC(=O)c1c(C)oc2nc(N3CCCC3)ccc12 | > 96.4 |  |  |  | 
CCOC(=O)c1c(C)oc2nccc(N3CCN(c4ccccc4)CC3)c12 | > 68.5 |  | 120 |  | 
CCOC(=O)c1c(C)oc2nccc(N3CCOCC3)c12 | > 86.1 |  | > 314 |  | 
CCOC(=O)c1c(C(C)C)oc2nccc(N3CCN(c4ccc(Cl)cc4)CC3)c12 | > 58.5 |  | > 234 |  | 
CCOC(=O)c1c(C)oc2nc(N3CCCC3)ccc12 | 10.5 (≈ 2.88 µg/mL) | > 364 | 196 | > 34.7 | 18.7
CCOC(=O)c1c(C)oc2nc(N3CCOCC3)ccc12 | > 86.1 |  |  |  | 

SMILES | MIC90 [1] [µM] | IC50 (MRC5) [µM] | IC50 (J774.A1) [µM] | selectivity ratio [2] | selectivity ratio [3]
CNC(=O)c1c(C(C)C)oc2nc(N3CCCC3)ccc12 | > 87 |  |  |  | 
CCOC(=O)c1c(C)oc2ncc(N3CCCC3)cc12 | 82.3 (≈ 22.6 µg/mL) | > 364 | 260 | > 4.4 | 3.2
CCCSc1cnc2oc(C(C)C)c(C(=O)OCC)c2c1 | > 81.3 |  |  |  | 
CCOC(=O)c1c(C(C)C)oc2nc(N3CCCC3)ccc12 | 32.8 (≈ 9.92 µg/mL) | > 331 | > 331 | > 10.1 | > 10.1
CCOC(=O)c1c(C(C)C)oc2nccc(N3CCN(c4ccccc4)CC3)c12 | > 63.6 |  | 235 |  | 
CCOC(=O)c1c(C)oc2ncc(N3CC[C@@H](F)C3)cc12 | > 85.6 | > 342 |  |  | 
CCCCNc1cnc2oc(C(C)C)c(C(=O)OCC)c2c1 | > 82.1 |  |  |  | 
CCCSc1ccc2c(C(=O)OCC)c(C(C)C)oc2n1 | > 81.3 |  |  |  | 
Cc1oc2nc(N3CCCC3)ccc2c1C(=O)O | > 102 |  |  |  | 
CCCCNc1ccc2c(C(=O)OCC)c(C(C)C)oc2n1 | 23.2 (≈ 7.06 µg/mL) | > 328 | > 328 | > 14.2 | > 14.2
NCC[C@H](O)C(=O)N[C@@H]1C[C@H](N)[C@@H](O[C@H]2O[C@H](CN)[C@@H](O)[C@H](O)[C@H]2O)[C@H](O)[C@H]1O[C@H]1O[C@H](CO)[C@@H](O)[C@H](N)[C@H]1O [AMIKACIN] | 0.4 (≈ 0.234 µg/mL) |  |  |  | 
N[C@@H]1CONC1=O [CYCLOSERINE] | 37.1 (≈ 3.79 µg/mL) |  |  |  | 
CC[C@@H](CO)NCCN[C@@H](CC)CO [ETHAMBUTOL] | 7 (≈ 1.43 µg/mL) |  |  |  | 
NNC(=O)c1ccncc1 [ISONIAZID] | 0.8 (≈ 0.11 µg/mL) |  |  |  | 
COc1c(N2C[C@@H]3CCCN[C@@H]3C2)c(F)cc2c(=O)c(C(=O)O)cn(C3CC3)c12 [MOXIFLOXACIN] | < 0.2 |  |  |  | 
CO[C@H]1/C=C/O[C@@]2(C)Oc3c(C)c(O)c4c(O)c(c(/C=N/N5CCN(C)CC5)c(O)c4c3C2=O)NC(=O)/C(C)=C\C=C\[C@H](C)[C@H](O)[C@@H](C)[C@@H](O)[C@@H](C)[C@H](OC(C)=O)[C@@H]1C [RIFAMPIN] | 0.06 (≈ 0.0494 µg/mL) |  |  |  | 
